Results published in US5504103A, “Inhibition of phosphatidylinositol 3-kinase with 17 β-hydroxywortmannin and analogs thereof” (Eli Lilly and Company, priority 1993, dated 1996).
Read-outs that look alike come from different tables or passages of the source.

What was measured:
[1] = molecular target: bovine brain purified PI 3-kinase; experiment: Assay of purified PI 3-kinase activity (32P incorporation into phosphatidylinositol, TLC/scintillation); assay type: biochemical
Description: In another, preferred, method, PI 3-kinase was prepared from bovine brain. Two bovine brains (wet weight about 900 g) were obtained from a local slaughterhouse within minutes of slaughter, packed on ice, and homogenized within one hour. Brains were trimmed of excess fat and blood vessels and then homogenized using a Tekmar Tissuemizer (Cincinnati, Ohio) at 4° C. in 20 mM of Tris(pH 8.3) containing 250 mM of sucrose, 6 mM of β-mercaptoethanol, 1 μg/ml of leupeptin, 1 μg/ml of pepstatin A, 0.4 mM of PMSF, and 1 mM of MgCl2.
Following centrifugation for 60 minutes at 10,000×g, the pH of the supernatant (about 1200 mL) was lowered to 5.75 using dropwise addition of 1M acetic acid at 4° C. After stirring for an additional 15 minutes at 4° C., the solution was centrifuged for 60 minutes at 13,500×g. The supernatant was discarded. Pellets were resuspended in Buffer A (20 mM of Tris, pH 8.3, containing 6 mM of β-mercaptoethanol, 0.1 mM of ethylene glycol-bis(β-aminoethyl ether) N,N,N',N'-tetraacetic acid (EGTA), 1 μg/mL of leupeptin, 1 μg/mL of pepstatin A, and 1 mM of MgCl2), and loaded onto a Fast Flow Q Sepharose column (300 ml) at a flow rate of 5 mL/min at 4° C. […]
PI 3-kinase activity was measured as previously described by Matter, W. F., et al., Biochemical and Biophysical Research Communications, 186: 624-631 (1992). […]

[2] = tested on: PI 4-kinase; experiment: Effect on PI 4-kinase; assay type: biochemical

`COC[C@H]1OC(=O)c2coc3c2[C@@]1(C)C1=C(C3=O)[C@@H]2CC[C@H](O)[C@@]2(C)C[C@H]1OC(C)=O` [17β-hydroxywortmannin] was tested, and the IC50 [1] was 0.2 ng/mL, the IC50 ([1]; molar value printed in parentheses, read-out: IC50) was 0.46 nM and the “effect on PI 4-kinase” value [2] was “no effect”.
